We go through 18 molecules from patent US11576922B2, “CD73 inhibitors” (ORIC Pharmaceuticals, Inc., priority 2017, dated 2023).

Structures are written as SMILES. Some results are limits rather than exact numbers.

The first assay concerns the target T1, CD73 (Homo sapiens, UniProt P21589).
T1 sequence (P21589 27-549): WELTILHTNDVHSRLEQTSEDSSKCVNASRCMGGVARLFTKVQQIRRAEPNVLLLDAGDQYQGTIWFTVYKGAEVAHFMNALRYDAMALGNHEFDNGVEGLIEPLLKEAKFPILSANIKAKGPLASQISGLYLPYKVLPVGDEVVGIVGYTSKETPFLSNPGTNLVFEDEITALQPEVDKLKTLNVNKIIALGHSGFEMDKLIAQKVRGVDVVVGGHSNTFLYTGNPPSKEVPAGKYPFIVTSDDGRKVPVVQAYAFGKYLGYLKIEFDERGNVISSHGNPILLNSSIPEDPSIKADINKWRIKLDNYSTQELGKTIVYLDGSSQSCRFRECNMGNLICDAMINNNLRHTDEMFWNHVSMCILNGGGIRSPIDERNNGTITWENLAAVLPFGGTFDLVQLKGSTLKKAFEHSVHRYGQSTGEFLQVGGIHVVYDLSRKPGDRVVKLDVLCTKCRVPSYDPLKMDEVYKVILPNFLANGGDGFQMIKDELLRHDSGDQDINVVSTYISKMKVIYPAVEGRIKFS
Nature of the assay: Example A1: Biochemical Assay (CD73 inhibition, Malachite Green detection of AMP hydrolysis). The settings on record: Biochemical IC50, CD73 0.3208 nM, AMP 15 μM, Tris-HCl pH 7.4, Malachite Green, absorbance 620 nm. Here is the method: Example A1: Biochemical Assay
Assay Reaction Conditions
• Assay Volume: 70 μl • Reaction Volume: 50 μl • CD73: 0.3208 nM • AMP: 15 μM • Assay Buffer: 2 5 mM Tris-HCL, pH 7.4, 0.01% Brij-35, 0.01% BSA, 5 mM MgCl2 Assay Procedure:
Made dose titration of testing compounds in assay buffer, 10 points ½ log titrations in duplicates starting at 100 μM.
Added 25 μl of CD73 to each well for a final concentration of […].
Incubated at RT for 15 min.
Added 25 μl of AMP to each well for a final concentration of 15 μM.
Incubated at RT for 10 min.
Added 10 μl of Malachite Green Reagent A, incubate at RT for 10 min.
Added 10 μl of Malachite Green Reagent B, incubate at RT for 45 min.
Read the Absorbance on Envision plate reader using excitation filter: Cy5 […].
The ability of the compounds disclosed herein to inhibit CD73 activity was quantified and the respective IC50 values were determined. Table 1 provides the biochemical IC50 values of compounds disclosed herein.
`O=P(O)(O)C[P@@](=O)(OC[C@H]1O[C@@H](n2nnc3c(NCc4ccccc4Cl)nc(Cl)nc32)[C@H](O)[C@@H]1O)Oc1ccccc1` [Example 33, (((R)-(((2R,3S,4R,5R)-5-(5-chloro-7-((2-chlorobenzyl)amino)-3H-[1,2,3]triazolo[4,5-d]pyrimidin-3-yl)-3,4-dihydroxytetrahydrofuran-2-yl)methoxy)(phenoxy)phosphoryl)methyl) phosphonic acid] had an IC50 of 100 to 1000 nM.

Staying with this assay, now noted: CD73 0.3208 nM, AMP 15 μM, Tris-HCl pH 7.4, Malachite Green, absorbance 620 nm; read-out: Biochemical IC50.
`CN(Cc1ccccc1)c1nc(Cl)nc2c1nnn2[C@@H]1O[C@H](COP(=O)(O)CP(=O)(O)O)C[C@H]1O` [Example 22, (((((2S,4R,5R)-5-(7-(benzyl(methyl)amino)-5-chloro-3H-[1,2,3]triazolo[4,5-d]pyrimidin-3-yl)-4-hydroxytetrahydrofuran-2-yl)methoxy)(hydroxy)phosphoryl)methyl)phosphonic acid]: the IC50 lay in the range of 100 to 1000 nM.
Consider `O=P(O)(O)CP(=O)(O)OC[C@H]1O[C@@H](n2nnc3c(NCc4ccc(Cl)cc4)nc(Cl)nc32)[C@H](O)[C@@H]1O` [Example 7, (((((2R,3S,4R,5R)-5-(5-chloro-7-((4-chlorobenzyl)amino)-3H-[1,2,3]triazolo[4,5-d]pyrimidin-3-yl)-3,4-dihydroxytetrahydrofuran-2-yl)methoxy)(hydroxy)phosphoryl)methyl) phosphonic acid], for which the IC50 was under 100 nM.
For `C[C@H](Nc1nc(Cl)nc2c1nnn2[C@@H]1O[C@H](COP(=O)(O)CP(=O)(O)O)[C@@H](O)[C@H]1O)c1ccccc1` [Example 8, (((((2R,3S,4R,5R)-5-(5-chloro-7-(((S)-1-phenylethyl)amino)-3H-[1,2,3]triazolo[4,5-d]pyrimidin-3-yl)-3,4-dihydroxytetrahydrofuran-2-yl)methoxy)(hydroxy)phosphoryl)methyl) phosphonic acid], the IC50 was under 100 nM.
The same measure, in the same setting: next, `COP(=O)(CP(=O)(O)O)OC[C@H]1O[C@@H](n2ncc3c(NCc4ccccc4Cl)nc(Cl)nc32)[C@H](O)[C@@H]1O` (stereo partly drawn) [Example 49, (((((2R,3S,4R,5R)-5-(6-chloro-4-((2-chlorobenzyl)amino)-1H-pyrazolo[3,4-d]pyrimidin-1-yl)-3,4-dihydroxytetrahydrofuran-2-yl)methoxy)(methoxy)phosphoryl)methyl) phosphonic acid]: under 100 nM; `C[C@@H](c1ccccc1Cl)N(C)c1nc(Cl)nc2c1nnn2[C@@H]1O[C@H](COP(=O)(O)CP(=O)(O)O)[C@@H](O)[C@H]1O` [Example 12, (((((2R,3S,4R,5R)-5-(5-chloro-7-(((S)-1-(2-chlorophenyl)ethyl)(methyl)amino)-3H-[1,2,3]triazolo[4,5-d]pyrimidin-3-yl)-3,4-dihydroxytetrahydrofuran-2-yl)methoxy)(hydroxy)phosphoryl)methyl) phosphonic acid]: under 100 nM; `CN(c1nc(Cl)nc2c1nnn2[C@@H]1O[C@H](COP(=O)(O)CP(=O)(O)O)[C@@H](O)[C@H]1O)[C@@H]1CCc2ccccc21` [Example 19, (((((2R,3S,4R,5R)-5-(5-chloro-7-(((R)-2,3-dihydro-1H-inden-1-yl)(methyl)amino)-3H-[1,2,3]triazolo[4,5-d]pyrimidin-3-yl)-3,4-dihydroxytetrahydrofuran-2-yl)methoxy)(hydroxy)phosphoryl)methyl) phosphonic acid]: under 100 nM.
`COP(=O)(CP(=O)(O)O)OC[C@H]1O[C@@H](n2nnc3c(N(C)[C@H]4CCc5ccccc54)nc(Cl)nc32)[C@H](O)[C@@H]1O` (stereo partly drawn) [Example 24, (((((2R,3S,4R,5R)-5-(5-Chloro-7-(((S)-2,3-dihydro-1H-inden-1-yl)(methyl)amino)-3H-[1,2,3]triazolo[4,5-d]pyrimidin-3-yl)-3,4-dihydroxytetrahydrofuran-2-yl)methoxy)(methoxy)phosphoryl)methyl)phosphonic acid]: the IC50 was under 100 nM.
The same measure, in the same setting: next, `O=P(O)(O)CP(=O)(O)OC[C@H]1OC(n2nnc3c(NC4CCc5ccccc54)nc(Cl)nc32)[C@H](O)[C@@H]1O` (stereo in doubt) [Example 31, (((((2R,3S,4R,5S)-5-(5-chloro-7-(((R)-2,3-dihydro-1H-inden-1-yl)amino)-3H-[1,2,3]triazolo[4,5-d]pyrimidin-3-yl)-3,4-dihydroxytetrahydrofuran-2-yl)methoxy)(hydroxy)phosphoryl)methyl) phosphonic acid]: under 100 nM.
Take `CO[P@](=O)(CP(=O)(O)O)OC[C@H]1O[C@@H](n2nnc3c(NCc4ccccc4Cl)nc(Cl)nc32)[C@H](O)[C@@H]1O` [Example 27, (((R)-(((2R,3S,4R,5R)-5-(5-Chloro-7-((2-chlorobenzyl)amino)-3H-[1,2,3]triazolo[4,5-d]pyrimidin-3-yl)-3,4-dihydroxytetrahydrofuran-2-yl)methoxy)(methoxy)phosphoryl)methyl)phosphonic acid]: the IC50 fell in the range of 100 to 1000 nM.
On to `CN(Cc1ccccc1Cl)c1nc(Cl)nc2c1nnn2[C@@H]1C[C@H](COP(=O)(O)CP(=O)(O)O)[C@@H](O)[C@H]1O` [Example 21, (((((1R,2R,3S,4R)-4-(5-chloro-7-((2-chlorobenzyl)(methyl)amino)-3H-[1,2,3]triazolo[4,5-d]pyrimidin-3-yl)-2,3-dihydroxycyclopentyl)methoxy)(hydroxy)phosphoryl)methyl)phosphonic acid], for which the 50% inhibitory concentration (IC50) was under 100 nM.
Same read-out and setting: then `CN(Cc1ccccc1)c1nc(Cl)nc2c1nnn2[C@@H]1O[C@H](COP(=O)(O)CP(=O)(O)O)[C@@H](O)[C@H]1O` [Example 15, (((((2R,3S,4R,5R)-5-(7-(benzyl(methyl)amino)-5-chloro-3H-[1,2,3]triazolo[4,5-d]pyrimidin-3-yl)-3,4-dihydroxytetrahydrofuran-2-yl)methoxy)(hydroxy)phosphoryl)methyl) phosphonic acid], with under 100 nM; and `O=P(O)(O)CP(=O)(O)OC[C@H]1O[C@@H](n2nnc3c(NCC4CC4)nc(Cl)nc32)[C@H](O)[C@@H]1O` [Example 5, (((((2R,3S,4R,5R)-5-(5-chloro-7-((cyclopropylmethyl)amino)-3H-[1,2,3]triazolo[4,5-d]pyrimidin-3-yl)-3,4-dihydroxytetrahydrofuran-2-yl)methoxy)(hydroxy)phosphoryl)methyl) phosphonic acid], with 100 to 1000 nM; and `O=P(O)(O)CP(=O)(O)OC[C@H]1O[C@@H](n2nnc3c(NCc4ccccc4Cl)nc(Cl)nc32)[C@H](O)[C@@H]1O` [Example 6, (((((2R,3S,4R,5R)-5-(5-chloro-7-((2-chlorobenzyl)amino)-3H-[1,2,3]triazolo[4,5-d]pyrimidin-3-yl)-3,4-dihydroxytetrahydrofuran-2-yl)methoxy)(hydroxy)phosphoryl)methyl) phosphonic acid], with under 100 nM.
Same read-out and setting: then `O=P(O)(O)CP(=O)(OCC1CC1)OC[C@H]1O[C@@H](n2nnc3c(NCc4ccccc4Cl)nc(Cl)nc32)[C@H](O)[C@@H]1O` (stereo partly drawn) [Example 30, (((((2R,3S,4R,5R)-5-(5-chloro-7-((2-chlorobenzyl)amino)-3H-[1,2,3]triazolo[4,5-d]pyrimidin-3-yl)-3,4-dihydroxytetrahydrofuran-2-yl)methoxy) (cyclopropylmethoxy)phosphoryl)methyl) phosphonic acid], with under 100 nM; and `COP(=O)(CP(=O)(O)O)OC[C@H]1O[C@@H](n2ncc3c(N(C)C4CCc5ccccc54)nc(Cl)nc32)[C@H](O)[C@@H]1O` (stereo partly drawn) [Example 39, (((((2R,3S,4R,5R)-5-(6-Chloro-4-(((R)-2,3-dihydro-1H-inden-1-yl)(methyl)amino)-1H-pyrazolo[3,4-d]pyrimidin-1-yl)-3,4-dihydroxytetrahydrofuran-2-yl)methoxy)(methoxy)phosphoryl)methyl)phosphonic acid], with under 100 nM.
Same read-out and setting: next, `C[C@H](c1ccccc1)N(C)c1nc(Cl)nc2c1cnn2[C@@H]1O[C@H](COP(=O)(O)CP(=O)(O)O)[C@@H](O)[C@H]1O` [Example 42, (((((2R,3S,4R,5R)-5-(6-chloro-4-(methyl((R)-1-phenylethyl)amino)-1H-pyrazolo[3,4-d]pyrimidin-1-yl)-3,4-dihydroxytetrahydrofuran-2-yl)methoxy)(hydroxy)phosphoryl)methyl) phosphonic acid]: under 100 nM; `C[C@H](Nc1nc(Cl)nc2c1nnn2[C@@H]1O[C@H](COP(=O)(O)CP(=O)(O)O)[C@@H](O)[C@H]1O)c1ccccc1Cl` [Example 9, (((((2R,3S,4R,5R)-5-(5-chloro-7-(((S)-1-(2-chlorophenyl)ethyl)amino)-3H-[1,2,3]triazolo[4,5-d]pyrimidin-3-yl)-3,4-dihydroxytetrahydrofuran-2-yl)methoxy)(hydroxy)phosphoryl)methyl) phosphonic acid]: under 100 nM.

In general, IC50 refers to the point on the concentration scale where inhibition reaches its midpoint.
